Assays:
Assay type in all cases: in vivo
[1] = system: Amaranthus palmeri having an Arg128Gly, Arg128Met, Gly210 deletion or Gly399Ala mutation in PPO2, waterhemp having a Gly210 deletion mutation in PPO2, ragweeds …; test: Herbicidal effect, soil application with drift-reducing nozzle 7 days before sowing soybean (Example 1); settings: soil surface, TTI11004 nozzle, 10, 20, 40, 80, or 160 g/ha, 200 L/ha, greenhouse, soybean sown after 7 days, examined after 14 days
Description: Amaranthus palmeri having an Arg128Gly mutation in PPO2, Amaranthus palmeri having an Arg128Met mutation in PPO2, Amaranthus palmeri having a Gly210 deletion mutation in PPO2, Amaranthus palmeri having a Gly399Ala mutation in PPO2, waterhemp having a Gly210 deletion mutation in PPO2, and ragweeds having Arg128Leu in PPO2 are sown in a plastic pot. On the same day, a compound X is applied to the surface of soil by using a drift-reducing nozzle (TTI11004 manufactured by Teejet Company). The amount of the compound X to be applied is 10, 20, 40, 80, or 160 g/ha and the amount of spray dilution is 200 L/ha. Then, these weeds are cultivated in a greenhouse and Roundup Ready 2 Xtend soybean seeds are sown after 7 days, to examine the effects on the weeds and phytotoxic effects on the soybean after 14 days.

[2] = system: Amaranthus palmeri having an Arg128Gly, Arg128Met, Gly210 deletion or Gly399Ala mutation in PPO2, waterhemp having a Gly210 deletion mutation in PPO2, ragweeds …; test: Herbicidal effect, soil application with drift-reducing nozzle on the day of sowing weeds and soybean (Example 2); settings: soil surface on day of sowing, TTI11004 nozzle, 10, 20, 40, 80, or 160 g/ha, 200 L/ha, greenhouse, examined after 21 days
Description: Amaranthus palmeri having an Arg128Gly mutation in PPO2, Amaranthus palmeri having an Arg128Met mutation in PPO2, Amaranthus palmeri having a Gly210 deletion mutation in PPO2, Amaranthus palmeri having a Gly399Ala mutation in PPO2, waterhemp having a Gly210 deletion mutation in PPO2, ragweeds having Arg128Leu in PPO02, and a Roundup Ready 2 Xtend soybean are sown in a plastic pot. On the same day, a compound X is applied to the surface of soil by using a drift-reducing nozzle (TTI11004 manufactured by Teejet Company). The amount of the compound X to be applied is 10, 20, 40, 80, or 160 g/ha and the amount of spray dilution is 200 L/ha. Then, the weeds and soybean are cultivated in a greenhouse to examine the effects on the weeds and phytotoxic effects on the soybean after 21 days.

[3] = system: Amaranthus palmeri having an Arg128Gly, Arg128Met, Gly210 deletion or Gly399Ala mutation in PPO2, waterhemp having a Gly210 deletion mutation in PPO2, ragweeds …; test: Herbicidal effect, foliar treatment with drift-reducing nozzle 21 days after sowing (Example 3); settings: foliar treatment 21 days after sowing, TTI11004 nozzle, 10, 20, 40, 80, or 160 g/ha, 200 L/ha, greenhouse, examined 14 days after treatment
Description: Amaranthus palmeri having an Arg128Gly mutation in PPO2, Amaranthus palmeri having an Arg128Met mutation in PPO2, Amaranthus palmeri having a Gly210 deletion mutation in PPO2, Amaranthus palmeri having a Gly399Ala mutation in PPO2, waterhemp having a Gly210 deletion mutation in PPO2, ragweeds having Arg128Leu in PPO02, and a Roundup Ready 2 Xtend soybean are sown in a plastic pot. Then, the weeds and soybean are cultivated in a greenhouse and a compound X is applied to perform foliar treatment by using a drift-reducing nozzle (TTI11004 manufactured by Teejet Company) 21 days after sowing. The amount of the compound X to be applied is 10, 20, 40, 80, or 160 g/ha and the amount of spray dilution is 200 L/ha. Then, the weeds and soybean are further cultivated in a greenhouse to examine the effects on the weeds and phytotoxic effects on the soybean 14 days after treatment.

Measured: effects on the weeds

CCOC(=O)COc1ncccc1Oc1cc(-n2c(=O)cc(C(F)(F)F)n(C)c2=O)c(F)cc1Cl [compound X, Ethyl [3-[2-chloro-4-fluoro-5-(l-methyl-6-trifluoromethyl-2,4-dioxo-1,2,3,4-tetrahydropyrimidine-3-yl)phenoxy]-2-pyridyloxy]acetate]
valuable effect: all assays above

Reference: patent publication US11317630B2, “Method of controlling weeds” (Sumitomo Chemical Company, Limited, priority 2018, dated 2022)
